Reference: patent US9067894B1, “Compound, composition, and method of activating GIRK potassium channel and use of same for treating conditions of interest” (Vanderbilt University, priority 2013, dated 2015)

Experiments:
Kv7.4 = target: T1, Kv7.4 (Homo sapiens, UniProt P56696); test: Thallium flux assay, Kv7.4-expressing cells; assay type: cell-based
T1 construct: expressed in transfected cells; host or cells: HEK-293
Text: Cell Line Construction and Cell Culture. HEK-293 cells co-expressing human GIRK1/2 and rat mGlu8 were generated as previously described (Niswender et al., 2008). A HEK-293 cell line (ATCC, Manassas, Va.) expressing human GIRK1 and human GIRK2 was constructed by transfecting HEK-293 cells with GIRK1 and GIRK2 (Origene, Rockville, Md.) cloned into the pBudCE4.1 vector (Life Technologies, Carlsbad, Calif.) using FuGene 6 (Promega, Madison, Wis.) transfection reagent. Unless otherwise noted, other ion channel-expressing cells were prepared by transfecting HEK-293 cells with individual or combinations of subunits: GIRK1, pCMV6-A-BSD; GIRK2, pCMV6-A-puro; GIRK3, pCMV6-A-hygro; GIRK4, pCMV6-A-AC; Kv7.4, pIRESneo3. The Kir2.1 and hERG-expressing cell lines were made by transfecting T-REx-293 cells (Life Technologies, Carlsbad, Calif.) with Kir2.1 and Kv11.1, respectively, cloned into pcDNA5TO. Monoclonal cell lines were produced by limiting-dilution cloning of antibiotic-resistant cells and functional selection using the thallium flux assay described below. Unless otherwise noted, cells were maintained in Minimal Essential Medium, Alpha Medium (Mediatech, Manassas, Va.) supplemented with 10% fetal bovine serum (Sigma-Aldrich, Saint Louis, Mo.) and GlutaGro (Mediatech, Manassas, Va.), referred to henceforth as cell culture medium. […]

[1] = Ascending dose study in mice; assay type: in vivo, mouse; conditions: mice, 10, 30, 60 mg/kg intraperitoneal
Procedure: To begin to assess […] pharmacodynamics properties, an ascending dose study (10, 30, 60 mg/kg, intraperitoneal injection) was performed in mice.

Rotarod test = assay type: in vivo, mouse; conditions: mice, 60 mg/kg i.p.
Procedure: For rotarod tests, a rotarod module was inserted into a mouse home cage and was operated by the SmartCage™ (AfaSci, Inc., Redwood City, Calif.) system28. A mouse was placed on the rod and the rod began to rotate at a fixed speed (15 rpm). Latencies for the mice to fall off the rod were recorded. […] Two groups of mice (n=8 mice/group) were trained on the rotarod over 4 consecutive days. On training days, each mouse was allowed to perform on the rotarod a total of 4 times. For each training day, each mouse's lowest rotarod latency was excluded. The remaining 3 rotarod latencies were averaged and served as the mouse's rotarod performance for that training day. […] Approximately 1 hour post-drug/vehicle injection, each mouse's rotarod performance was assessed a total of 4 times with the mouse's worst performance being excluded. The remaining 3 rotarod latencies were then averaged for each mouse and these values were normalized to the mouse's previous performance on the final training day to account for variation in individual animal's competency on the rotarod.

Adenosine A2A = target: T2, Adenosine A2A (Homo sapiens, UniProt P29274); test: Radioligand displacement (Ricerca); assay type: binding
T2 construct: Ricerca (contract assay)
T2 sequence (P29274 whole entry): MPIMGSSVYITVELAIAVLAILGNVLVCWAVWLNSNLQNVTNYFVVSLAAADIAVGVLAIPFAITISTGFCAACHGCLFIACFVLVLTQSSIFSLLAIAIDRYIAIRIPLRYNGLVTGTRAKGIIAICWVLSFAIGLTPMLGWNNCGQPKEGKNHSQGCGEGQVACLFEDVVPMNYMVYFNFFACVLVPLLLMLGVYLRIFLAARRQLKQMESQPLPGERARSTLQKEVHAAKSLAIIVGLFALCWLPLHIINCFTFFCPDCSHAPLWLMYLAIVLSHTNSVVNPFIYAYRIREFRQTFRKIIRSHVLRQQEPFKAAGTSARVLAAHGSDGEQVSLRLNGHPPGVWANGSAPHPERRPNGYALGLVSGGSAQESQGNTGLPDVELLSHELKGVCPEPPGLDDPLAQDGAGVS

N-Type Ca channel = target: T3, N-Type Ca channel (Rattus norvegicus, UniProt Q02294); test: Radioligand displacement (Ricerca); assay type: binding
T3 construct: Ricerca
T3 sequence (Q02294 whole entry): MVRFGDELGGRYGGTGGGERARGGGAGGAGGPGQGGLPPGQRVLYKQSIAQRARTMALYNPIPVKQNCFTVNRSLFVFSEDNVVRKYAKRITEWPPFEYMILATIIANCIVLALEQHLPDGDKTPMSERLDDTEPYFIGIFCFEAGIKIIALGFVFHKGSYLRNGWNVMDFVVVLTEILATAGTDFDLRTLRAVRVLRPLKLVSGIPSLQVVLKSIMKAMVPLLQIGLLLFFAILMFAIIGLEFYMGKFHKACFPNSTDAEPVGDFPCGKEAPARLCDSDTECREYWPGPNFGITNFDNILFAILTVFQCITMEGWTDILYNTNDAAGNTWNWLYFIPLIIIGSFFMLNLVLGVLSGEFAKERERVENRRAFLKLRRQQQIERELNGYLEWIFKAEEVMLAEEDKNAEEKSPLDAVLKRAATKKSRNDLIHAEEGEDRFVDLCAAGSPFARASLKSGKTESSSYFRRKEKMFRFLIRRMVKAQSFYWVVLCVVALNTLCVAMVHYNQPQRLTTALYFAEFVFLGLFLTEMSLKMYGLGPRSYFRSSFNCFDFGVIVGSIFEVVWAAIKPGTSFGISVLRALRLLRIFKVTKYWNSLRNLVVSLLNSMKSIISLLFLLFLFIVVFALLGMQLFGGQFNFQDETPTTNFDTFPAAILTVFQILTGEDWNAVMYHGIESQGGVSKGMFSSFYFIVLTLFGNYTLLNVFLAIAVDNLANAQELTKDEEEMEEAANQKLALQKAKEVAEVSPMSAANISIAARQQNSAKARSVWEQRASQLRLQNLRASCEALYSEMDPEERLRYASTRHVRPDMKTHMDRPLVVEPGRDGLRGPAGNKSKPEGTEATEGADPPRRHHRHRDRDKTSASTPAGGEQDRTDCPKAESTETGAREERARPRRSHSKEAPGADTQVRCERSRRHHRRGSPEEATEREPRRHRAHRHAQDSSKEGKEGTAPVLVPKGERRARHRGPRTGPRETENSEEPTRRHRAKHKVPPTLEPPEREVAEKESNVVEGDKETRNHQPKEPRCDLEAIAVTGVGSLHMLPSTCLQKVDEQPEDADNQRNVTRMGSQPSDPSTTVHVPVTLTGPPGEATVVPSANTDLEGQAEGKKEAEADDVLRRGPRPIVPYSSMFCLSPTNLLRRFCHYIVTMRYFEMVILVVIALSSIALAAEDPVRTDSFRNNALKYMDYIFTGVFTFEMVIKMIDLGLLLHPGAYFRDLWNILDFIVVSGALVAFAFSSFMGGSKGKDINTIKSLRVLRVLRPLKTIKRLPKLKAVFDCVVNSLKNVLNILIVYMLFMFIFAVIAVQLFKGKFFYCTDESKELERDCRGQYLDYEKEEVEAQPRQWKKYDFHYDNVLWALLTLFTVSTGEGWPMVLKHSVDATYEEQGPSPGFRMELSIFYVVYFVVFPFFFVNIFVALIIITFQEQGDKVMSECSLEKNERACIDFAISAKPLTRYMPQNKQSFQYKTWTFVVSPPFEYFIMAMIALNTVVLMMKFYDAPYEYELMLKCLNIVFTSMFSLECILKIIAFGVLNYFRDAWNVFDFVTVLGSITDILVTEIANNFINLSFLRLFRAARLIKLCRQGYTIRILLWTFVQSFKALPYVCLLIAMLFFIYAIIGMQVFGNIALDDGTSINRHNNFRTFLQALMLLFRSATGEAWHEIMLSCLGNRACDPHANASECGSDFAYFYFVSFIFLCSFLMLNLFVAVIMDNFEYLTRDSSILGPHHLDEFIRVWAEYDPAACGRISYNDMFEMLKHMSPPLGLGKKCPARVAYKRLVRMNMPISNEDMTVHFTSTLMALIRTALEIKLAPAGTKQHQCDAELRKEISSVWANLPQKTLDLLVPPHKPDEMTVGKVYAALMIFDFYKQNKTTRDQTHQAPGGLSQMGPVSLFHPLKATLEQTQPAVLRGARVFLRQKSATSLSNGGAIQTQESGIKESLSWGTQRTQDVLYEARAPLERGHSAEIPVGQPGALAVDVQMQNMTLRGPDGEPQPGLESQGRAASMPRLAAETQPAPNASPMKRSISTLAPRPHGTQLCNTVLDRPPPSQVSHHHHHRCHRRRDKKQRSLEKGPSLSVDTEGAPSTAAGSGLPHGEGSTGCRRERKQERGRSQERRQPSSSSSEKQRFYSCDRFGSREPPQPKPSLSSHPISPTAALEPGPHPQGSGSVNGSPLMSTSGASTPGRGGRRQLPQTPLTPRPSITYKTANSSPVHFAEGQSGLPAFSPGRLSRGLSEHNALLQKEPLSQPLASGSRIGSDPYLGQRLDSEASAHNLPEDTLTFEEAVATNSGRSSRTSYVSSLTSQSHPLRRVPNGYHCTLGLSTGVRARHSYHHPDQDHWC

[2] = target: T4, Glutamate (NMDA, glycine) (Rattus norvegicus, UniProt P35439); test: Radioligand displacement (Ricerca); assay type: binding
T4 construct: Ricerca

Tachykinin NK1 = target: T5, Tachykinin NK1 (Homo sapiens, UniProt P25103); test: Radioligand displacement (Ricerca); assay type: binding
T5 construct: Ricerca (contract panel)
T5 sequence (P25103 whole entry): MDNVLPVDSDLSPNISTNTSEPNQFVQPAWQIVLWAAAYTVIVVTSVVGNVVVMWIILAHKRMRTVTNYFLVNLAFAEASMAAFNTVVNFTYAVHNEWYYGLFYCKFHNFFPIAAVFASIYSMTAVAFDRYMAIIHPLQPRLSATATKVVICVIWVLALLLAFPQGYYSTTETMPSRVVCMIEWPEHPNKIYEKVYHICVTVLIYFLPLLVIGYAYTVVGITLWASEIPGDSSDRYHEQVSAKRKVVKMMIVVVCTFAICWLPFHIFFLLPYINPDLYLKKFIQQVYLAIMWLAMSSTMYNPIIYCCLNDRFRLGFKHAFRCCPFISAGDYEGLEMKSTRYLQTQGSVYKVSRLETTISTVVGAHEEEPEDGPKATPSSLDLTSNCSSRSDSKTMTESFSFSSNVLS

Thyroid hormone = test: Radioligand displacement (Ricerca); assay type: binding, human; conditions: 10 μM

SMILES: Cc1cc(NC(=O)Nc2ccc(F)c(F)c2)n(-c2ccccc2)n1 [VU0456810, 1-(3,4-difluorophenyl)-3-(3-methyl-1-phenyl-1H-pyrazol-5-yl)urea]
- Potency (Kv7.4): Inactive
- appearance of animals [1]: appeared normal and not under obvious distress
- rotarod performance compared to vehicle (Rotarod test): small and insignificant decrease
- decrease in performance on the rotarod vs vehicle (Rotarod test; insignificant (p=0.7)): 14%
- inhibition at 10 µM (Adenosine A2A): 12%
- inhibition at 10 µM (N-Type Ca channel): 5%
- inhibition at 10 µM [2]: -25%
- inhibition at 10 µM (Tachykinin NK1): 3%
- % Inhibition (Thyroid hormone): 8%
